These results are taken from US20200291086A1, “BIOREVERSABLE PROMOIETIES FOR NITROGEN-CONTAINING AND HYDROXYL-CONTAINING DRUGS” (priority 2013, published 2020).

Numbered stars: 1 amine (or outer) side, 2 acyl side, 3 side chain; on linkers, the order of the positions; unused ones are H or OH. Square brackets hold non-standard residues; d marks the D form. Peptide text beside a SMILES is read from it. * marks the point of attachment. X16 = C[C@H](N)c1nc(SCC(=O)NCCNC(=O)OCC2c3ccccc3-c3ccccc32)cn1[C@@H](C)C(=O)*; X10 = C[C@H](N)c1nnnn1[C@@H](CCCCN[*:1])C(=O)[*:2]; X8 = C[C@@H](C(=O)[*:2])n1nncc1[C@@H](N)CCCCN[*:1]; X3 = NCc1cccn1[C@@H](CCCCN[*:1])C(=O)[*:2]; Fmoc = O=C(OCC1c2ccccc2-c2ccccc21)*; X15 = NCc1cc(S(N)(=O)=O)ccc1C(=O)*; X14 = NCCc1ccccc1C(=O)*

Chain of insulin receptor (P06213 28-758 limits assumed, species assumed): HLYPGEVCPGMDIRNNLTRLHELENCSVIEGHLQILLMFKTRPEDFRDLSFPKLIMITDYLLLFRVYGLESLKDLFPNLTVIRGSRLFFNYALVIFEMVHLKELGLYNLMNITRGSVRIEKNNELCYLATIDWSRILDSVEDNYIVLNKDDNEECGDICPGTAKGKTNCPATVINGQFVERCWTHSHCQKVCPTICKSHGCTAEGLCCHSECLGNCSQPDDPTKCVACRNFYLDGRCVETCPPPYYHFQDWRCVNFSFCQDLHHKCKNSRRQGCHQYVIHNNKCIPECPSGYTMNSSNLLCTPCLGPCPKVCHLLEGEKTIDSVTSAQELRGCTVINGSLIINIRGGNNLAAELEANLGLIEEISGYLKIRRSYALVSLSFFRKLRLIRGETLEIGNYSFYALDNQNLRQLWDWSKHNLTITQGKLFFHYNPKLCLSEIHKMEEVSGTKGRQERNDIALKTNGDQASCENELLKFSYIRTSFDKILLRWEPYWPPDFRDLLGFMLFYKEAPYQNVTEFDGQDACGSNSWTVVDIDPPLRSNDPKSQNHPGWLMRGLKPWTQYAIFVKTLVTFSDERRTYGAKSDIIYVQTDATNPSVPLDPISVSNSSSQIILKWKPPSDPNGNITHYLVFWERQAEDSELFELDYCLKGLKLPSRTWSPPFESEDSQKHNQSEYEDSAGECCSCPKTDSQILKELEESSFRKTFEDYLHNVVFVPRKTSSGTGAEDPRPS
Chain of insulin receptor (P06213 763-1382 partner limits assumed, species assumed): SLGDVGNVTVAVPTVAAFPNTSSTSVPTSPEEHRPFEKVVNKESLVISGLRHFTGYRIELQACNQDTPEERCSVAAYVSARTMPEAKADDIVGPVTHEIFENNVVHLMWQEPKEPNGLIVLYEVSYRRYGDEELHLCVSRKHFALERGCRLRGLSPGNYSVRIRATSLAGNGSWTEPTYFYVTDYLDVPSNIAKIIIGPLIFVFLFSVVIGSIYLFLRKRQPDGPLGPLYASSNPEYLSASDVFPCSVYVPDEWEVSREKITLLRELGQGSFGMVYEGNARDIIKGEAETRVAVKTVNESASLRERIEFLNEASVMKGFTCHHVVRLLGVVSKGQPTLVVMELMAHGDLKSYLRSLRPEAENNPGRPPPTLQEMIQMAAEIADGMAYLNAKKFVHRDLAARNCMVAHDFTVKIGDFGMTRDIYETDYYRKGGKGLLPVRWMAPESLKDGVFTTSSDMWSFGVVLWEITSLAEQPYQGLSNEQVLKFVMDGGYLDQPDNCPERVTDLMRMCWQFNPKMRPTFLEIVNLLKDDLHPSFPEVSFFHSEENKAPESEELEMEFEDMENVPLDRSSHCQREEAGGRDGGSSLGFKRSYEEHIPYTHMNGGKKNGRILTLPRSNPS

Test system in one data set: not listed separately
The experiment in a line: Determination of half life in serum: cleavage of promoieties from capped D-amino acid model peptides. In kind it is in vitro ADME. The settings on record: 100% serum, 37° C.; read-out: t 1/2 (h), cleavage of promoiety linked to N terminus of model peptide X-G-dI-dV-dE-dQ-dA-dA (converted). The method, then:
Determination of Half Life in Serum
Promoiety capped model peptides X-G-dI-dV-dE-dQ-dA-dA were used in the assay. D amino acids were used to prevent other enzymatic cleavage of the model peptides. The peptides were dissolved in 100% serum and incubated at 37° C. Samples were collected for analysis at different time points (e.g., 1 h, 2 h, 4 h, 8 h, 12 h, 24 h, 48 h, 72 h, 96 h, and 120 h).
The concentrations of the promoiety capped model peptides and the released parent model peptides were determined by their respective peak areas. The first order dissociation rate constant of a promoiety capped model peptide was determined by plotting the logarithm of [starting promoiety capped model peptide]/[remaining promoiety capped model peptide] at various time intervals. The half life for cleavage of a promoiety capped model peptide was calculated by using the equation and the slope derived from this plot.
For the compound `CC[C@@H](C)[C@@H](NC(=O)CNC(=O)[C@H](C)n1nncc1[C@@H](N)CCCCNC(=O)OCC1c2ccccc2-c2ccccc21)C(=O)N[C@@H](C(=O)N[C@H](CCC(=O)O)C(=O)N[C@H](CCC(N)=O)C(=O)N[C@H](C)C(=O)N[C@H](C)C(=O)O)C(C)C` (Fmoc-[X8]G[dI][dV][dE][dQ][dA][dA]-OH), the half-life is 96.4 h.

Consider `CC[C@@H](C)[C@@H](NC(=O)CNC(=O)c1ccccc1CCN)C(=O)N[C@@H](C(=O)N[C@H](CCC(=O)O)C(=O)N[C@H](CCC(N)=O)C(=O)N[C@H](C)C(=O)N[C@H](C)C(=O)O)C(C)C` (X14-G[dI][dV][dE][dQ][dA][dA]-OH), for which the half-life was 106 h.

For `CC[C@@H](C)[C@@H](NC(=O)CNC(=O)[C@H](CCCCNC(=O)OCC1c2ccccc2-c2ccccc21)n1nnnc1[C@H](C)N)C(=O)N[C@@H](C(=O)N[C@H](CCC(=O)O)C(=O)N[C@H](CCC(N)=O)C(=O)N[C@H](C)C(=O)N[C@H](C)C(=O)O)C(C)C` (Fmoc-[X10]G[dI][dV][dE][dQ][dA][dA]-OH), the half-life was 91.5 h.

On to `CC[C@@H](C)[C@@H](NC(=O)CNC(=O)[C@H](CCCCNC(=O)OCC1c2ccccc2-c2ccccc21)n1cccc1CN)C(=O)N[C@@H](C(=O)N[C@H](CCC(=O)O)C(=O)N[C@H](CCC(N)=O)C(=O)N[C@H](C)C(=O)N[C@H](C)C(=O)O)C(C)C` (Fmoc-[X3]G[dI][dV][dE][dQ][dA][dA]-OH), for which the half-life is 103 h.

`CC[C@@H](C)[C@@H](NC(=O)CNC(=O)c1ccc(S(N)(=O)=O)cc1CN)C(=O)N[C@@H](C(=O)N[C@H](CCC(=O)O)C(=O)N[C@H](CCC(N)=O)C(=O)N[C@H](C)C(=O)N[C@H](C)C(=O)O)C(C)C` (X15-G[dI][dV][dE][dQ][dA][dA]-OH): the half-life is 39.9 h.

For `CC[C@@H](C)[C@@H](NC(=O)CNC(=O)[C@H](C)n1cc(SCC(=O)NCCNC(=O)OCC2c3ccccc3-c3ccccc32)nc1[C@H](C)N)C(=O)N[C@@H](C(=O)N[C@H](CCC(=O)O)C(=O)N[C@H](CCC(N)=O)C(=O)N[C@H](C)C(=O)N[C@H](C)C(=O)O)C(C)C` (X16-G[dI][dV][dE][dQ][dA][dA]-OH), the half-life is 72.3 h.

A further data set concerns the target insulin receptor (Homo sapiens, UniProt P06213).
Experiment: not given
Conditions: cited from earlier work.
For the compound “[LysB29-tetradecanoyl, des B30] insulin [insulin detemir]”, the “binding affinity retained relative to native insulin” value is on record as 15-20%.
